Results taken from US10040838B2, “CRHR2 peptide agonists and uses thereof” (JANSSEN PHARMACEUTICA NV, priority 2008, dated 2018).
Residues, ends and D or L forms follow the SMILES beside them. No end group written: not given here. *: point of attachment. Succinimide(1-Et,3-yl) = CCN1C(=O)CC(*)C1=O

Target: T1, human CRHR2 (Homo sapiens, UniProt Q13324)
T1 construct: expressed in transfected cells
T1 sequence (Q13324 1-411): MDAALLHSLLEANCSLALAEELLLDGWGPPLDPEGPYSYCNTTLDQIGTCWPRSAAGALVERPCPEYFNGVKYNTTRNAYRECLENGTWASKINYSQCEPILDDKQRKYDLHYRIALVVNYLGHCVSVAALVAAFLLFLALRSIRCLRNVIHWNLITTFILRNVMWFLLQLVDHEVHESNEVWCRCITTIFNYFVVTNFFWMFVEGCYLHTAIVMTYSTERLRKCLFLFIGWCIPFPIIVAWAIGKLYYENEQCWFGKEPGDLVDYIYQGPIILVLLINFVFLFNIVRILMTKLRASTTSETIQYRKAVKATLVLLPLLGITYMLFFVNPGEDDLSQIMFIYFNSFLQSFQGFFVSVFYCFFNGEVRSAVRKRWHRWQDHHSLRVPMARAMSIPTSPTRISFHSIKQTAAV
Assay: cAMP assay in h-CRHR2 transfected SK-N-MC cells
Type: cell-based
Conditions: for Log DR: Table 13, h-SCP control pA50 minus test compound pA50 within same assay batch
Method: The concentration required for 50% maximum effect (A50) was 0.4 nM.
Human CRHR1 (accession number X72304) or CRHR2 (accession number U34587) were cloned into pcDNA3.1/Zeo expression vector and stably transfected into SK-N-MC cells by electroporation. Cells were maintained in MEM w/Earl's Salt with 10% FBS, 50 I.U. penicillin, 50 μg/ml streptomycin, 2 mM L-glutamine, 1 mM sodium pyruvate and 0.1 mM nonessential amino acids, 600 μg/ml G418. Cells were grown at 37° C. in 5% CO2.
Cells were plated in 96-well tissue culture dishes (Biocoat from BD Biosciences) overnight at 50,000 cell/well. Cells were washed with PBS then resuspended in DMEM F-12 without phenol red, containing 10 μM isobutylmethylxanthine (IBMX). Cells were incubated with the peptides at concentrations ranging from 1 pM to 10 μM for 60 min at 37° Celsius. […] Forskolin (10 μM), a direct stimulant of adenylate cyclase, was used as positive control. The assays were stopped by the addition of 0.5 M HCl and mixing by orbital rotation for 2 h at 4° Celsius.
To assess the activity of the inventive peptide at the CRHR2, an intracellular cAMP measurement test using a Flash plate radioactive assay (Catalog No. Cus56088; Perkin Elmer, MA, U.S.A.) was employed.
Transfected SK-N-MC cells were plated in 96-well Biocoat tissue culture dishes (BD Biosciences, San Jose, Calif., U.S.A) overnight at 50,000 cell/well. Cells were first washed with PBS and then suspended with DMEM/F-12 without phenol red, containing […]. Suspended cells were transferred into a 96-well flash plate coated with scintillant fluid. Cells were incubated with peptides ranging from […], for 60 min, at 37° Celsius. Forskolin at 10 μM was used as positive control. After ligand stimulation, cells were lysed by the addition of 0.5M HCl and mixed by orbital rotation for 2 h at 4° Celsius in order to release intracellular cAMP into the media.
Media containing released intracellular cAMP was transferred to a 96-well flash plate coated with scintillant fluid containing an anti-cAMP antibody. In this assay, intracellular cAMP competes with ^125I-labeled cAMP binding to the antibody. To generate a standard curve, cAMP ranging from 2.5 to 250 pmoles/ml was included in the experiment. [^125I]-cAMP was measured on a TopCount scintillation counter (Perkin Elmer, MA, U.S.A).
Individual agonist concentration-response curve data were fitted to the Hill equation, see formula below, using GraphPad Prism (Graphpad Software, La Jolla, Calif., U.S.A.), to provide estimates of agonist concentration needed to generate one-half maximal response (A50), and the maximal asymptote (α) and Hill slope (nH) parameters. In this equation, [A] is the agonist concentration and E is the measured effect:
For display purposes the mean fitted parameter estimates were used to generate a single E/[A] curve shown superimposed on the mean experimental data. Potency estimates for agonists, pA50, are expressed as the negative logarithm of the midpoint of each curve and listed with their standard error of measurement (SEM). Logarithm base 10 of the agonist dose ratio (Log DR) values were calculated by subtraction of the test compound pA50 value from the corresponding h-SCP (SEQ ID NO:1) control pA50 value within the same assay batch. The SEM values of the Log DR values are given by the square root of the sum of the squared SEM values of the h-SCP (SEQ ID NO:1) control and test compound pA50 values.
Human and rat peptides (see Table 10) were used on the stimulation of h-CRHR1 or h-CRHR2 transfected SK-N-MC cells in the cAMP flash plate assay. Peptides were incubated for 1 hr at 37° Celsius. Curves were calculated using non-linear regression sigmoidal concentration-response analysis calculation in GraphPad Prism. The so obtained pA50 values are shown in Table 11 in addition to literature values. […]

| Compound | Log DR | Kd (tested as antagonists of h-SCP at 10 μM, read-out: receptor affinity (KA)) [µM] |
| --- | --- | --- |
| TKFTLSLDVPTNIMNLLFNICKAKNLRAQAAANAHLMAQI-NH2 [SEQ ID NO: 22, TKFTLSLDVPTNIMNLLFNICKAKNLRAQAAANAHLMAQI-NH2] | 0.52 |  |
| TKFTLSLDVPTNIMNLLFNIAKCKNLRAQAAANAHLMAQI-NH2 [SEQ ID NO: 24, TKFTLSLDVPTNIMNLLFNIAKCKNLRAQAAANAHLMAQI-NH2] | 0.74 |  |
| TKFTCSLDVPTNIMNLLFNIAKAKNLRAQAAANAHLMAQI-NH2 [SEQ ID NO: 6, TKFTCSLDVPTNIMNLLFNIAKAKNLRAQAAANAHLMAQI-NH2] | 0.61 |  |
| TKFTLSLDVPCNIMNLLFNIAKAKNLRAQAAANAHLMAQI-NH2 [SEQ ID NO: 12, TKFTLSLDVPCNIMNLLFNIAKAKNLRAQAAANAHLMAQI-NH2] | 1.72 |  |
| TKFTLSLDVPTNIMNLLFNIACAKNLRAQAAANAHLMAQI-NH2 [SEQ ID NO: 23, TKFTLSLDVPTNIMNLLFNIACAKNLRAQAAANAHLMAQI-NH2] | 1.13 |  |

More lines, now with the values ahead:

| Log DR | Kd (tested as antagonists of h-SCP at 10 μM, read-out: receptor affinity (KA)) [µM] | Compound |
| --- | --- | --- |
| ~1.72 |  | CC[C@H](C)[C@H](NC(=O)[C@H](CC(N)=O)NC(=O)[C@H](Cc1ccccc1)NC(=O)[C@H](CC(C)C)NC(=O)[C@H](CC(C)C)NC(=O)[C@H](CC(N)=O)NC(=O)[C@H](CCSC)NC(=O)[C@@H](NC(=O)[C@H](CC(N)=O)NC(=O)[C@@H](NC(=O)[C@@H]1CCCN1C(=O)[C@@H](NC(=O)[C@H](CC(=O)O)NC(=O)[C@H](CC(C)C)NC(=O)[C@H](CO)NC(=O)[C@H](CC(C)C)NC(=O)[C@@H](NC(=O)[C@H](Cc1ccccc1)NC(=O)[C@H](CCCCN)NC(=O)[C@@H](N)[C@@H](C)O)[C@@H](C)O)C(C)C)[C@@H](C)O)[C@@H](C)CC)C(=O)N[C@@H](C)C(=O)N[C@@H](CCCCN)C(=O)N[C@@H](C)C(=O)N[C@@H](CCCCN)C(=O)N[C@@H](CC(N)=O)C(=O)N[C@@H](CC(C)C)C(=O)N[C@@H](CCCNC(=N)N)C(=O)N[C@@H](C)C(=O)N[C@@H](CCC(N)=O)C(=O)N[C@@H](C)C(=O)N[C@@H](C)C(=O)N[C@@H](C)C(=O)N[C@@H](CC(N)=O)C(=O)N[C@@H](C)C(=O)N[C@@H](Cc1c[nH]cn1)C(=O)N[C@@H](CC(C)C)C(=O)N[C@@H](CCSC)C(=O)N[C@@H](C)C(=O)N[C@@H](CCC(N)=O)C(=O)N[C@@H](CSC1CC(=O)N(CC)C1=O)C(N)=O (stereo partly shown) [SEQ ID NO: 42, TKFTLSLDVPTNIMNLLFNIAKAKNLRAQAAANAHLMAQC(-NES)-NH2] (H-TKFTLSLDVPTNIMNLLFNIAKAKNLRAQAAANAHLMAQC(Succinimide(1-Et,3-yl))-NH2; N-terminus assumed) |
| 0.05 |  | CC[C@H](C)[C@H](NC(=O)[C@H](CCC(N)=O)NC(=O)[C@H](C)NC(=O)[C@H](CCSC)NC(=O)[C@H](CC(C)C)NC(=O)[C@H](Cc1c[nH]cn1)NC(=O)[C@H](C)NC(=O)[C@H](CC(N)=O)NC(=O)[C@H](C)NC(=O)[C@H](C)NC(=O)[C@H](C)NC(=O)[C@H](CCC(N)=O)NC(=O)[C@H](C)NC(=O)[C@H](CCCNC(=N)N)NC(=O)[C@H](CC(C)C)NC(=O)[C@H](CC(N)=O)NC(=O)[C@H](CCCCN)NC(=O)[C@H](C)NC(=O)[C@H](CCCCN)NC(=O)[C@H](C)NC(=O)[C@@H](NC(=O)[C@H](CSC1CC(=O)N(CC)C1=O)NC(=O)[C@H](Cc1ccccc1)NC(=O)[C@H](CC(C)C)NC(=O)[C@H](CC(C)C)NC(=O)[C@H](CC(N)=O)NC(=O)[C@H](CCSC)NC(=O)[C@@H](NC(=O)[C@H](CC(N)=O)NC(=O)[C@@H](NC(=O)[C@@H]1CCCN1C(=O)[C@@H](NC(=O)[C@H](CC(=O)O)NC(=O)[C@H](CC(C)C)NC(=O)[C@H](CO)NC(=O)[C@H](CC(C)C)NC(=O)[C@@H](NC(=O)[C@H](Cc1ccccc1)NC(=O)[C@H](CCCCN)NC(=O)[C@@H](N)[C@@H](C)O)[C@@H](C)O)C(C)C)[C@@H](C)O)[C@@H](C)CC)[C@@H](C)CC)C(N)=O (stereo partly shown) [SEQ ID NO: 52, TKFTL SLDVP TNIMN LLFC(-NES)I AKAKN LRAQA AANAH LMAQI-NH2] (H-TKFTLSLDVPTNIMNLLFC(Succinimide(1-Et,3-yl))IAKAKNLRAQAAANAHLMAQI-NH2; N-terminus assumed) |
| 1.05 |  | TKFTLSLDVPTNIMNLLFNIAKAKNLRAQAAANAHCMAQI-NH2 [SEQ ID NO: 37, TKFTLSLDVPTNIMNLLFNIAKAKNLRAQAAANAHCMAQI-NH2] |
| ~1.97 |  | CC[C@H](C)[C@H](NC(=O)[C@H](CCC(N)=O)NC(=O)[C@H](C)NC(=O)[C@H](CCSC)NC(=O)[C@H](CC(C)C)NC(=O)[C@H](Cc1c[nH]cn1)NC(=O)[C@H](C)NC(=O)[C@H](CSC1CC(=O)N(CC)C1=O)NC(=O)[C@H](C)NC(=O)[C@H](C)NC(=O)[C@H](C)NC(=O)[C@H](CCC(N)=O)NC(=O)[C@H](C)NC(=O)[C@H](CCCNC(=N)N)NC(=O)[C@H](CC(C)C)NC(=O)[C@H](CC(N)=O)NC(=O)[C@H](CCCCN)NC(=O)[C@H](C)NC(=O)[C@H](CCCCN)NC(=O)[C@H](C)NC(=O)[C@@H](NC(=O)[C@H](CC(N)=O)NC(=O)[C@H](Cc1ccccc1)NC(=O)[C@H](CC(C)C)NC(=O)[C@H](CC(C)C)NC(=O)[C@H](CC(N)=O)NC(=O)[C@H](CCSC)NC(=O)[C@@H](NC(=O)[C@H](CC(N)=O)NC(=O)[C@@H](NC(=O)[C@@H]1CCCN1C(=O)[C@@H](NC(=O)[C@H](CC(=O)O)NC(=O)[C@H](CC(C)C)NC(=O)[C@H](CO)NC(=O)[C@H](CC(C)C)NC(=O)[C@@H](NC(=O)[C@H](Cc1ccccc1)NC(=O)[C@H](CCCCN)NC(=O)[C@@H](N)[C@@H](C)O)[C@@H](C)O)C(C)C)[C@@H](C)O)[C@@H](C)CC)[C@@H](C)CC)C(N)=O (stereo partly shown) [SEQ ID NO: 44, TKFTLSLDVPTNIMNLLFNIAKAKNLRAQAAAC(-NES)AH LMAQI-NH2] (H-TKFTLSLDVPTNIMNLLFNIAKAKNLRAQAAAC(Succinimide(1-Et,3-yl))AHLMAQI-NH2; N-terminus assumed) |
|  | < 10 | DVPTNIMNLLFNIAKAKNLRAQAAANAHLMAQI-NH2 [SEQ ID NO: 112, DVPTNIMNLLFNIAKAKNLRAQAAANAHLMAQI-NH2] |
